Measured values from patent publication US12437835B2, “Interrogatory cell-based assays and uses thereof” (Berg LLC, priority 2012, dated 2025).
Entries after “also recorded” stand apart in the source; their conditions may differ.

Tests used:
[1] = target: FASN (Mus musculus, UniProt P19096); conditions: in vivo; cited from earlier work
[2] = tested on: LDHA; assay: Protein expression (quantitative proteomics) in HepG2; format: cell-based, Homo sapiens; conditions: HepG2, Sorafenib 1 μM, 24 hours
Method: (§1) Multikinase inhibitor Sorafenib, a first line chemotherapeutic agent for the advanced HCC patients, was used to probe the role of global kinase activity and protein phosphorylation changes associated with this treatment. The HepG2 (ATCC Ascension No. HB-8065) cell line was selected to model HCC cells and the THLE2 (ATCC Ascension No. CRL-10149) cell line was selected to model normal hepatic cells.
(§2) The cells were cultured according to the following protocol. Day 1: HepG2/Hep3B—seed 3.2×10^6 cells in T-75 culture flasks; 7.4×10^6 cells in T-175 culture flasks; or 9.5×10^6 cells in T-225 culture flasks. THLE-2—seed 1.3×10^6 cells in T-75 culture flasks. Day 2: 16-24 hours later, at 50-70% confluence—add treatment. Control: DMSO at final concentration of 0.01%. EGF: 500 ng/mL in 10 mM acetic acid. Sorafenib: 1 μM at 0.1% volume in DMSO. Day 3: 24 hours after treatment, harvest cells by trypsinization. Wash pellets 2× with PBS before freezing.
Thus, the phospho proteome affords an additional layer of information that can be used for elucidating the complex relationship between the effect of an extracellular signal (e.g., drug molecule) on kinase activity and total cellular protein, thereby facilitating the identification of disease treatment targets, as well as diagnostic/prognostic markers associated with disease.

[3] = target: T1, ENO1 (Homo sapiens, UniProt P06733); assay: Global enzyme activity analysis (ATP/ADP probe, LC-MS/MS) in HepG2; format: cell-based; conditions: HepG2, Sorafenib 1 μM, 24 hours; relative to control, untreated sample
T1 construct: endogenous in cells; host or cells: HepG2 (ATCC HB-8065)
Description: as §1
(§3) FIG. 41B illustrates a method for global enzyme (e.g., kinase) enrichment profiling. First, a cell lysate including the targeted enzyme (e.g., kinase) is parepared. The second step is probe binding (e.g., an ATP probe in the case of kinase). Theny the enzyme is digested and brobe-bound fragments are captured. These fragments can be analyzed (e.g., by LC-MS/MS) and the corresponding protein thus identified (e.g., via a database search of the LC-Ms/MS data).
(§4) THERMO SCIENTIFIC© PIERCE® Kinase Enrichment Kits and ACTIVX© probes (instructions available from THERMO SCIENTIFIC© and PIERCE® Biotechnology www.thermoscientific.com/pierce) were used for global enzyme activity analysis. Briefly, these and similar kits enable selective labeling and enrichment of ATPases including kinases, chaperones and metabolic enzymes. ATP and ADP Probes are generally nucleotide derivatives, which covalently modify the active site of enzymes with conserved lysine residues in the nucleotide-binding site. For example, the structure of desthiobiotin-ATP and -ADP consists of a modified biotin attached to the nucleotide by a labile acyl-phosphate bond. Depending on the position of the lysine within the enzyme active site, either desthiobiotin-ATP or -ADP can be preferred for labeling specific ATPases.
as §2, with “Sorafenib: 1 μM at 0.1% volume in DMSO. Day 3: 24 hours after treatment, harvest cells by trypsinization. Wash pellets 2× with PBS before freezing.” left out

[4] = target: T2, LDHA (Homo sapiens, UniProt P00338); assay: as above; format: cell-based; conditions: HepG2, Sorafenib 1 μM, 24 hours
T2 construct: endogenous in cells; host or cells: HepG2
Description: as §1, §3, §4
as §2, with “Sorafenib: 1 μM at 0.1% volume in DMSO. Day 3: 24 hours after treatment, harvest cells by trypsinization. Wash pellets 2× with PBS before freezing.” left out

[5] = target: T3, PGK1 (Homo sapiens, UniProt P00558); assay: as above; format: cell-based; conditions: HepG2, Sorafenib 1 μM, 24 hours
T3 construct: endogenous in cells; host or cells: HepG2 (ATCC HB-8065)
T3 sequence (P00558 1-417): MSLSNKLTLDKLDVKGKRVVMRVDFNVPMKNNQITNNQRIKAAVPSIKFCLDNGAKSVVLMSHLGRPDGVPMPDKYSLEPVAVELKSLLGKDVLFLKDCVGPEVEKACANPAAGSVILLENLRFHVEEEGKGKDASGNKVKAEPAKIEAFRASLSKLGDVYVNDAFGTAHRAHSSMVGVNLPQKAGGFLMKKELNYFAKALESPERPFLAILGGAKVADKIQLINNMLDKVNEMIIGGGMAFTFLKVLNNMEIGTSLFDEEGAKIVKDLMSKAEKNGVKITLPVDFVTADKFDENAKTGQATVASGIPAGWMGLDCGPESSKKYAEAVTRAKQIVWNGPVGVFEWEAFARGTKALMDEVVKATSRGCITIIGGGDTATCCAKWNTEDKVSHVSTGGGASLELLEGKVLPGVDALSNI
Description: as §1, §3, §4
as §2, with “Sorafenib: 1 μM at 0.1% volume in DMSO. Day 3: 24 hours after treatment, harvest cells by trypsinization. Wash pellets 2× with PBS before freezing.” left out

Sequence of FASN (P19096 whole entry): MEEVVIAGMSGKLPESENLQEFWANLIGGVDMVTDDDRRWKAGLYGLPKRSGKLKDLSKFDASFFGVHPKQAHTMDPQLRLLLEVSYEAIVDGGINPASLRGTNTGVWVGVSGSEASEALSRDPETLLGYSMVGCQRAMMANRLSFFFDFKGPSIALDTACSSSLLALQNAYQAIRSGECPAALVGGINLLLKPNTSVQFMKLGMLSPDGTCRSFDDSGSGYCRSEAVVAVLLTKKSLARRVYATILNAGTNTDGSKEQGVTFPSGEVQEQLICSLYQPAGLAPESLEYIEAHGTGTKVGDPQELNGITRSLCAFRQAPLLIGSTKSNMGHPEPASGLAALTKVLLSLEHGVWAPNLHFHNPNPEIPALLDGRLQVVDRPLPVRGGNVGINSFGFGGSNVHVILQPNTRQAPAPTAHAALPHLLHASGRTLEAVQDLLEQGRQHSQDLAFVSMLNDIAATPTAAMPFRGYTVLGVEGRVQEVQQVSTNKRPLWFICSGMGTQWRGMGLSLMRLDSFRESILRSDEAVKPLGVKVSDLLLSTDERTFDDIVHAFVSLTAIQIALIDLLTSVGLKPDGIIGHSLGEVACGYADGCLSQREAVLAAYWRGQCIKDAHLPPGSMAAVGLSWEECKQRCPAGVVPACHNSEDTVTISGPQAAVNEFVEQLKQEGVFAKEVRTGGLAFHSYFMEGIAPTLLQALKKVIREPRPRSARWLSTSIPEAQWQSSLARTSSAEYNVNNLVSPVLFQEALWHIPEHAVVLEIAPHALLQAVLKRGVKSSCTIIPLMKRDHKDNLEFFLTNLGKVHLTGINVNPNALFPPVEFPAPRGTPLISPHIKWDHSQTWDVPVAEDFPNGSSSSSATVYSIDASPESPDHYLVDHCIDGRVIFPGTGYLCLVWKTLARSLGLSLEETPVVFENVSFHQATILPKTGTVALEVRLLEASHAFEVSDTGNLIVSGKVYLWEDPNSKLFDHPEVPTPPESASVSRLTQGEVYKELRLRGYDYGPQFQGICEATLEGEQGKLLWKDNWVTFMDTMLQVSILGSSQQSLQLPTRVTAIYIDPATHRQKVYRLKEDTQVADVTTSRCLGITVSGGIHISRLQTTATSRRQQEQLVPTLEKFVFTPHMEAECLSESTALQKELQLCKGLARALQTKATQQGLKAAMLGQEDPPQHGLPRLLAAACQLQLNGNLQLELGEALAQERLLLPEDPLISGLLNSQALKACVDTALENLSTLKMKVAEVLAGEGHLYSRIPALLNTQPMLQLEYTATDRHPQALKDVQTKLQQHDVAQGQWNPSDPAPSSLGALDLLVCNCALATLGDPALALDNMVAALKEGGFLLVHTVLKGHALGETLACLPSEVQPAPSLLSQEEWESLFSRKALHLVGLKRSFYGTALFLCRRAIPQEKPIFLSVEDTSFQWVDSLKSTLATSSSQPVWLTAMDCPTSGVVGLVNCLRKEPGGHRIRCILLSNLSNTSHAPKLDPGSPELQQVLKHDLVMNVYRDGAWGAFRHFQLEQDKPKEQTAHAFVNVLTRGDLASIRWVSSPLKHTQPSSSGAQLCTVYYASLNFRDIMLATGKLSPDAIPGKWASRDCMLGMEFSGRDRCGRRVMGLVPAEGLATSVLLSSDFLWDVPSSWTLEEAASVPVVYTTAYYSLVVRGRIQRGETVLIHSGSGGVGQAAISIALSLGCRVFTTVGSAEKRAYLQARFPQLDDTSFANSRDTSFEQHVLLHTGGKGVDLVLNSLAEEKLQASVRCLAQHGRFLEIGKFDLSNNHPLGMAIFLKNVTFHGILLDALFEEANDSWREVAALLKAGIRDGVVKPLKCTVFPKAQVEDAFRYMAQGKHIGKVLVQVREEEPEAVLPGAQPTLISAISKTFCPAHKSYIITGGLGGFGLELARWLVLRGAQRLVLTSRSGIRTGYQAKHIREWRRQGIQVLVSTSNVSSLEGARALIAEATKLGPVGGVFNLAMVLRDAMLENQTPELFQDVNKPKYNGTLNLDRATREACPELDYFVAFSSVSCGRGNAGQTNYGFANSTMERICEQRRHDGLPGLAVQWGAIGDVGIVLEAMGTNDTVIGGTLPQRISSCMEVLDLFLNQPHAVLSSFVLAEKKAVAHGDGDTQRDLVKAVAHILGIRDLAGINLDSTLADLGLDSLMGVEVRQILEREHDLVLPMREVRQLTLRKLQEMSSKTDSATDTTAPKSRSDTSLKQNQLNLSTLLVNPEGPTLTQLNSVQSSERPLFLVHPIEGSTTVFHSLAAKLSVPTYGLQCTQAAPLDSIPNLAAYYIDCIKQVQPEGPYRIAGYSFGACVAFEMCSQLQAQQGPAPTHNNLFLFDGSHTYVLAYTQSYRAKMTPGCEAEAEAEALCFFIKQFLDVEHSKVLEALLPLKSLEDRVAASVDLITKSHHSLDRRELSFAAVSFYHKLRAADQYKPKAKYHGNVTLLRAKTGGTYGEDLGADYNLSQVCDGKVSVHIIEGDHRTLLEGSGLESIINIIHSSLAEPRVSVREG
T1 sequence (P06733 whole entry): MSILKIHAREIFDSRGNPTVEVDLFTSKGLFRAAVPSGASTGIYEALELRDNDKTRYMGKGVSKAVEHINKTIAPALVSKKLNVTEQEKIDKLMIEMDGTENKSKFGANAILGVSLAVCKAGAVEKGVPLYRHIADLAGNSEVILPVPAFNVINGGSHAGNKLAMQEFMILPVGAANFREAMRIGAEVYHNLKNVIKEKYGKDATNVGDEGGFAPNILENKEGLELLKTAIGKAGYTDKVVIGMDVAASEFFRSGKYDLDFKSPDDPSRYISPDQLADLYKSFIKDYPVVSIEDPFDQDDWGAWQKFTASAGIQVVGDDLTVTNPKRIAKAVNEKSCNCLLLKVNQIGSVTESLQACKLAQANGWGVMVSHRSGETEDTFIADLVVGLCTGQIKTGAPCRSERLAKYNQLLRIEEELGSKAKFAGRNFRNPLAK

Row | Structure (SMILES) | food intake [1] | weight loss [1] | LDHA protein expression [2] | ENO1 activity [3] | LDHA activity [4] | PGK1 activity [5]
1 | C=C1C(=O)OC(CCCCCCCC)C1C(=O)O (centres unmarked) [C75] | reducing food intake | weight loss |  |  |  | 
2 | C/C=C/C/C=C/CCC(=O)[C@H]1O[C@H]1C(N)=O [Cerulenin] | reducing food intake | weight loss |  |  |  | 
3 | CNC(=O)c1cc(Oc2ccc(NC(=O)Nc3ccc(Cl)c(C(F)(F)F)c3)cc2)ccn1 [Sorafenib] |  |  | upregulation | significant decrease; also recorded: downregulating | significant decrease; also recorded: downregulating | significant decrease; also recorded: downregulating
